Measured values: patent publication US7173019B2, “Linked cyclitols and their polysulfated derivatives” (The Australian National University, priority 2001, dated 2007)
Read-outs that look alike come from different tables or passages of the source.

How the values were obtained:
aFGF = aFGF (Homo sapiens, UniProt P05230); assay: Biacore biosensor: inhibition of aFGF binding to immobilised heparin and heparan sulfate; conditions: inhibitor 0.034 μM, aFGF 0.025 μM
Method: (§1) Assays were performed using a Biacore™ 2000 optical biosensor obtained from Biacore AB, Uppsala, Sweden. The biosensor was operated in accordance with the manufacturer's instructions. Briefly, neutravidin was covalently coupled to the surface of CM5 chips of the biosensor and then either biotinylated heparin (1 μg/ml) or biotinylated heparan sulfate ([…]) bound to the immobilised neutravidin. Mixtures of a test compound and a growth factor or other effector compound were preincubated for 2 to 5 minutes and the mixtures then added to individual biosensor cuvettes. Binding of growth factor or effector compound to the heparin or heparan sulfate was then monitored for approximately 5 minutes with the biosensor.
(§2) The tabulated values are the IC50 in μM or % inhibition of binding of the growth factor to the immobilised heparan sulfate (HS) or heparin.

bFGF = bFGF (Homo sapiens, UniProt P09038); assay: Biacore biosensor: inhibition of bFGF binding to immobilised heparin and heparan sulfate
bFGF, sequence (P09038 134-288 limits assumed, species assumed): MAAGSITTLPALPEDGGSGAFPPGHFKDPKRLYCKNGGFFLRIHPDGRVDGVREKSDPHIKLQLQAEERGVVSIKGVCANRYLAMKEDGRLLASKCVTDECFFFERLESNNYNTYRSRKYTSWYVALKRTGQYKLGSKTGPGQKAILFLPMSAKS
Method: as §1, §2

IL-8 = biological target: T1, IL-8 (Homo sapiens, UniProt P10145); assay: Biacore biosensor: inhibition of IL-8 binding to immobilised heparin and heparan sulfate; conditions: inhibitor 1.0 μM, IL-8 0.068 μM
T1 sequence (P10145 21-99): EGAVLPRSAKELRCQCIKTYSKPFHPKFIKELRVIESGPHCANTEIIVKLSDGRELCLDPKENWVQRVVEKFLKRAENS
Method: as §1

VEGF = biological target: T2, VEGF (Homo sapiens, UniProt P15692); assay: Biacore biosensor: inhibition of VEGF binding to immobilised heparin and heparan sulfate; conditions: inhibitor 0.034 μM, VEGF 0.025 μM
T2 sequence (P15692 27-191 isoform P15692-4): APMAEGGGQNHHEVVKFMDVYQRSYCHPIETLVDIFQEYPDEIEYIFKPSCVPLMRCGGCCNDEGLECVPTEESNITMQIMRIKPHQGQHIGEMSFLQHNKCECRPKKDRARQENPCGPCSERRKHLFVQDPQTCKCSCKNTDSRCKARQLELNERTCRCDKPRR
Method: as §1, §2

[1] = biological target: T3, human leukocyte Cathepsin G (Homo sapiens, UniProt P08311); assay: Cathepsin G inhibition, fluorogenic substrate, 96 well assay; format: biochemical; conditions: human leukocyte cathepsin G 100 ng, 37° C., 60 min, pH 6.6; for IC50: read-out: Amount for 50% inhibition (converted)
T3 construct: human leukocyte Cathepsin G (100 ng protein); from tissue; host or cells: human leukocytes
T3 sequence (P08311 21-244): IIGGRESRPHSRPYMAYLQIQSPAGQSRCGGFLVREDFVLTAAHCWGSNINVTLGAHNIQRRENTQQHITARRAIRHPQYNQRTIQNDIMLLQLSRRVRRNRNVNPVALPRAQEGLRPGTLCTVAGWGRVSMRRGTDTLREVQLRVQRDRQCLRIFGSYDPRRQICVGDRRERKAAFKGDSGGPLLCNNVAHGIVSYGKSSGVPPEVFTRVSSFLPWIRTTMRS
Method: Cathepsin G activity was determined using a 96 well assay format in PVC microtitre U-bottom plates with activity determination by a fluorescence plate reader. Briefly, within a total incubation volume of 40 μl, human leukocyte Cathepsin G (100 ng protein) was added to a mixture of inhibitor and the fluorogenic substrate MeOSuc-ala-ala-pro-phe-AMAC in 50 mM-NaOAc buffer, pH 6.6 containing 50 mM NaCl and 0.1% (v/v) Brij 35. The mixture was incubated at 37° C. for 60 min, the reaction stopped by the addition of 40 μl of 250 mM acetic acid and the fluorescence determined with excitation at 360 nm and emitted light measured at 460 nm.
In this table, the linked cyclitol compound identifications are the same as those given in Section A above where the structures of the compounds are also given. With regard to the purity rating, a greater number of asterisks signifies a greater degree of purity with five asterisks signifying an essentially pure compound. The cathepsin G inhibition data are the concentrations of compounds required to inhibit the enzyme by 50%.

[2] = biological target: T4, human platelet heparanase (Homo sapiens, UniProt Q9Y251); assay: Heparanase inhibition, 3H-radiolabelled HS cleavage assay; format: biochemical; conditions: for inhibition: read-out: Relative inhibition (%); for EC50: heparanase inhibition; for inhibition at 10 µg/mL: read-out: Inhibition (%) at 10 μg/ml
T4 construct: 10 ng of purified human platelet heparanase; from tissue; host or cells: human platelets
T4 sequence (Q9Y251 158-543 limits assumed): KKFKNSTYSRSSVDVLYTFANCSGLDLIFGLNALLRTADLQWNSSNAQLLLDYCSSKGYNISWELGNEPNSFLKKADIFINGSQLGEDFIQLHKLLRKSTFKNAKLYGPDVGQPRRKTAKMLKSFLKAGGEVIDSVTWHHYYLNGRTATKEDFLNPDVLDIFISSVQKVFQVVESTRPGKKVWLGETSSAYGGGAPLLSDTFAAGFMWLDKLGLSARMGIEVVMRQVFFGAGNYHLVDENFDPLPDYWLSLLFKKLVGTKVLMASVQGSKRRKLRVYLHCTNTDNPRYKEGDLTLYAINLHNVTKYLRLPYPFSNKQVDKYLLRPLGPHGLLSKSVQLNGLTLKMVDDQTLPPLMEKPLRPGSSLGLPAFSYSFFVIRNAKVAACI
T4 sequence (Q9Y251 36-109 limits assumed): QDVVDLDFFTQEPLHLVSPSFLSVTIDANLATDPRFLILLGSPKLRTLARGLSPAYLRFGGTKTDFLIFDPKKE
Method: Briefly, to an incubation mixture of […] containing ^3H-radiolabelled porcine mucosal HS […], 50 mM-sodium acetate buffer, pH 5.0, […] bovine serum albumin and the inhibitor to be tested, was added 10 ng of purified human platelet heparanase and the mixture incubated for 30 min. The reaction was terminated by freezing the assay tubes. The substrate was separated from the cleavage products on minicolumns of sepharose-bound histidine-rich glycoprotein (Freeman, C., and Parish, C. R. [1997], supra).
Inhibitory activity is based on a comparison with heparin with 100% inhibition at 30 μg/ml. The compounds were also tested at the same purity as in Example 15.

[3] = immobilised heparan sulfate, read-out: Inhibition of binding of aFGF (HS)
[4] = immobilised heparin, read-out: Inhibition of binding of aFGF (Hep)
[5] = immobilised heparan sulfate, inhibitor 0.034 μM, bFGF 0.034 μM, read-out: Inhibition of binding of bFGF (HS)
[6] = immobilised heparin, inhibitor 0.034 μM, bFGF 0.034 μM, read-out: Inhibition of binding of bFGF (Hep)
[7] = immobilised heparan sulfate, read-out: Inhibition of binding of IL-8 (HS)
[8] = immobilised heparin, read-out: Inhibition of binding of IL-8 (Hep)
[9] = immobilised heparan sulfate, read-out: Inhibition of binding of VEGF (HS)
[10] = immobilised heparin, read-out: Inhibition of binding of VEGF (Hep)
[11] = based on a comparison with heparin with 100% inhibition at 30 μg/ml
[12] = immobilised heparan sulfate, read-out: IC50, inhibition of bFGF binding (HS)
[13] = immobilised heparin, read-out: IC50, inhibition of bFGF binding (Hep)

aFGF, sequence (P05230 whole entry, species assumed): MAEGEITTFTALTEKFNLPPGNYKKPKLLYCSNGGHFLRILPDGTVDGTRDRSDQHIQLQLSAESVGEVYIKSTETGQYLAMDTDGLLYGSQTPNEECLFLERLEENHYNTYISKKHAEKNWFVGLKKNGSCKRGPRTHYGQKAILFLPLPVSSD

SMILES | inhibition at 0.034 µM (aFGF; [3]) [%] | inhibition at 0.034 µM (aFGF; [4]) [%] | inhibition at 0.034 µM (bFGF; [5]) [%] | inhibition at 0.034 µM (bFGF; [6]) [%] | inhibition at 1 µM (IL-8; [7]) [%] | inhibition at 1 µM (IL-8; [8]) [%] | inhibition at 0.034 µM (VEGF; [9]) [%] | inhibition at 0.034 µM (VEGF; [10]) [%] | IC50 [1] [nM] | inhibition [2, 11] [%] | EC50 ([2]; read-out: EC50 (converted)) [nM] | IC50 (bFGF; [12]) [nM] | IC50 (bFGF; [13]) [nM] | other results
O=S(=O)(O)O[C@H]1[C@H](OS(=O)(=O)O)[C@@H](N(CCCCCCCCCCN([C@H]2C=C[C@@H](OS(=O)(=O)O)[C@@H](OS(=O)(=O)O)[C@@H]2OS(=O)(=O)O)[C@H]2C=C[C@@H](OS(=O)(=O)O)[C@@H](OS(=O)(=O)O)[C@@H]2OS(=O)(=O)O)[C@H]2C=C[C@@H](OS(=O)(=O)O)[C@@H](OS(=O)(=O)O)[C@@H]2OS(=O)(=O)O)C=C[C@H]1OS(=O)(=O)O [Compound 4c] | 21 | 26 | 43 | 34 | 77 | 76 | 53 | 62 | 158 | 45 | 25500 | – | – | –
O=S(=O)(O)O[C@H]1[C@H](OS(=O)(=O)O)[C@@H](N(CCCCCCCCCN([C@H]2C=C[C@@H](OS(=O)(=O)O)[C@@H](OS(=O)(=O)O)[C@@H]2OS(=O)(=O)O)[C@H]2C=C[C@@H](OS(=O)(=O)O)[C@@H](OS(=O)(=O)O)[C@@H]2OS(=O)(=O)O)[C@H]2C=C[C@@H](OS(=O)(=O)O)[C@@H](OS(=O)(=O)O)[C@@H]2OS(=O)(=O)O)C=C[C@H]1OS(=O)(=O)O [Compound 4j] | 31 | 31 | 43 | 46 | 65 | 62 | 54 | 64 | 91.9 | 73 | 6130 | – | – | –
O=S(=O)(O)O[C@H]1[C@H](OS(=O)(=O)O)[C@@H](N(CCCCCCCCN([C@H]2C=C[C@@H](OS(=O)(=O)O)[C@@H](OS(=O)(=O)O)[C@@H]2OS(=O)(=O)O)[C@H]2C=C[C@@H](OS(=O)(=O)O)[C@@H](OS(=O)(=O)O)[C@@H]2OS(=O)(=O)O)[C@H]2C=C[C@@H](OS(=O)(=O)O)[C@@H](OS(=O)(=O)O)[C@@H]2OS(=O)(=O)O)C=C[C@H]1OS(=O)(=O)O [Compound 4i] | 28 | 30 | 51 | 45 | 89 | 95 | 71 | 70 | 136 | 53 | 16100 | – | – | inhibition at 10 µg/mL [2]: 39%
O=S(=O)(O)OC1C(OS(=O)(=O)O)C(OS(=O)(=O)O)C(N(CCCCCCN(C2C(OS(=O)(=O)O)C(OS(=O)(=O)O)C(OS(=O)(=O)O)C(OS(=O)(=O)O)C2OS(=O)(=O)O)C2C(OS(=O)(=O)O)C(OS(=O)(=O)O)C(OS(=O)(=O)O)C(OS(=O)(=O)O)C2OS(=O)(=O)O)C2C(OS(=O)(=O)O)C(OS(=O)(=O)O)C(OS(=O)(=O)O)C(OS(=O)(=O)O)C2OS(=O)(=O)O)C(OS(=O)(=O)O)C1OS(=O)(=O)O (centres unmarked) [Compound 5b] | – | – | – | – | – | – | – | – | 304 | – | 5920 | 96 | > 250 | –
O=S(=O)(O)O[C@H]1[C@H](OS(=O)(=O)O)[C@@H](N(CCCCCN([C@H]2C=C[C@@H](OS(=O)(=O)O)[C@@H](OS(=O)(=O)O)[C@@H]2OS(=O)(=O)O)[C@H]2C=C[C@@H](OS(=O)(=O)O)[C@@H](OS(=O)(=O)O)[C@@H]2OS(=O)(=O)O)[C@H]2C=C[C@@H](OS(=O)(=O)O)[C@@H](OS(=O)(=O)O)[C@@H]2OS(=O)(=O)O)C=C[C@H]1OS(=O)(=O)O [Compound 4k] | 39 | 43 | 45 | 36 | 54 | 67 | 30 | 41 | 133 | 50 | – | – | – | inhibition at 10 µg/mL [2]: 39%
O=S(=O)(O)OC[C@H]1O[C@@](COS(=O)(=O)O)(O[C@H]2O[C@H](COS(=O)(=O)O)[C@@H](OS(=O)(=O)O)[C@H](OS(=O)(=O)O)[C@H]2OS(=O)(=O)O)[C@@H](OS(=O)(=O)O)[C@@H]1OS(=O)(=O)O [Sucrose octasulfate, reference compound] | – | – | – | – | – | – | – | – | – | – | – | 925 | > 1000 | Inhibition of binding of aFGF (HS) (aFGF; immobilised heparan sulfate): 0% (HS); Inhibition of binding of aFGF (Hep) (aFGF; immobilised heparin): 0% (Hep); Inhibition of binding of bFGF (HS) (bFGF; immobilised heparan sulfate, inhibitor 0.034 μM, bFGF 0.034 μM): 2.5% (HS); Inhibition of binding of bFGF (Hep) (bFGF; immobilised heparin, inhibitor 0.034 μM, bFGF 0.034 μM): 0% (Hep); Inhibition of binding of VEGF (HS) (VEGF; immobilised heparan sulfate): 0% (HS); Inhibition of binding of VEGF (Hep) (VEGF; immobilised heparin): 0% (Hep); Amount for 50% inhibition [1]: 4.30 µg/mL; Relative inhibition (%) [2, 11]: 0%; EC50 [2]: >30 µg/mL
O=S(=O)(O)OC1C(OS(=O)(=O)O)C(OS(=O)(=O)O)C(N(CCCCCCCCCCN(C2C(OS(=O)(=O)O)C(OS(=O)(=O)O)C(OS(=O)(=O)O)C(OS(=O)(=O)O)C2OS(=O)(=O)O)C2C(OS(=O)(=O)O)C(OS(=O)(=O)O)C(OS(=O)(=O)O)C(OS(=O)(=O)O)C2OS(=O)(=O)O)C2C(OS(=O)(=O)O)C(OS(=O)(=O)O)C(OS(=O)(=O)O)C(OS(=O)(=O)O)C2OS(=O)(=O)O)C(OS(=O)(=O)O)C1OS(=O)(=O)O (centres unmarked) [Compound 5c] | – | – | – | – | – | – | – | – | 198 | – | 20600 | > 250 | > 250 | heparanase inhibition, in words [2]: poor heparanase inhibitor
